This test has as its target T1, Human CXCR3 (N-delta 4) (Homo sapiens, UniProt P49682).
T1 construct: CD8 leader (N); Flag tag; expressed in transfected cells; membrane preparation
T1 sequence (P49682 5-368 limits assumed): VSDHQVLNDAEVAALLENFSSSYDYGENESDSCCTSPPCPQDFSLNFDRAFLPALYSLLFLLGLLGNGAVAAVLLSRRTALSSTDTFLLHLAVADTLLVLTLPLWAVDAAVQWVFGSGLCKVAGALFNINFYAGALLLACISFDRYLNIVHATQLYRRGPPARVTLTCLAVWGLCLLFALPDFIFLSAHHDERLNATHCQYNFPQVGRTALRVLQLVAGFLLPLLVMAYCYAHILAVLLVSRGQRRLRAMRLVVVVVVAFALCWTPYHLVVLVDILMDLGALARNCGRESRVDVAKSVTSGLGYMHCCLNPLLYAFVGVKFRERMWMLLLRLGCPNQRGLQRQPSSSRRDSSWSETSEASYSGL
Nature of the test: Human CXCR3 (N-delta 4) Scintillation Proximity Assay (SPA), [125I] IP-10 binding to Ba/F3-hCXCR3 (N-delta 4) membranes. Particulars: [125I] IP-10 displacement. The source says:
The inventive compounds can readily be evaluated to determine activity at The CXCR3 receptors by known methods, such as, for example, Development of Human CXCR3 (N-delta 4) Binding Assay.
Cloning and Expression of Human CXCR3 (N-delta 4):
The DNA encoding human CXCR3 was cloned by PCR using human genomic DNA (Promega, Madison, Wis.) as a template. The PCR primers were designed based on the published sequence of human orphan receptor GPR9 (1) with incorporated restriction sites, a Kozak consensus sequence, CD8 leader and Flag tag. The PCR product was subcloned into the mammalian expression vector pME18Sneo, a derivative of the SR-alpha expression vector (designated as pME18Sneo-hCXCR3 (N-delta 4).
IL-3-dependent mouse pro-B cells Ba/F3 were transfected by electroporation in 0.4 ml Dulbecco's PBS containing 4×10^6 cells with 20 μg of pME18Sneo-hCXCR3 (N-delta 4) plasmid DNA. Cells were pulsed at 400 Volts, 100 OHMs, 960 μFd. The transfected cells were under selection with 1 mg/ml G418 (Life Technologies, Gaithersburg, Md.). G418-resistant Ba/F3 clones were screened for CXCR3 expression by specific binding of [^125I] IP-10 (NEN Life Science Products, Boston, Mass.).
Preparation of Ba/F3-hCXCR3 (N-delta 4) membranes:
Ba/F3 cells expressing human CXCR3 (N-delta 4) were pelleted and resuspended in the lysis buffer containing 10 mM HEPES , pH 7.5 and Complete® protease inhibitors (1 tablet per 100 ml) (Boehringer Mannheim, Indianapolis, Ind.) at a cell density of 20×10^6 cells per ml. After 5 minutes incubation on ice, cells were transferred to 4639 cell disruption bomb (Parr Instrument, Moline, Ill.) and applied with 1,500 psi of nitrogen for 30 minutes on ice. Large cellular debris was removed by centrifugation at 1,000×g. Cell membrane in the supernatant was sedimented at 100,000×g. The membrane was resuspended in the lysis buffer supplemented with 10% sucrose and stored at −80° C. Total protein concentration of the membrane was determined by BCA method from Pierce (Rockford, Ill.).
Human CXCR3 (N-delta 4) Scintillation Proximitv Assay (SPA):
For each assay point, 2 μg of membrane was preincubated for 1 hr with 300 μg wheat germ agglutinin (WGA) coated SPA beads (Amersham, Arlington Heights, Ill.) in the binding buffer (50 mM HEPES, 1 mM CaCl2, 5 mM MgCl2, 125 mM NaCI, 0.002% NaN3, 1.0% BSA) at room temperature. The beads were spun down, washed once, resuspended in the binding buffer and transferred to a 96-well Isoplate (Wallac, Gaithersburg, Md.). 25 pM of [^125I] IP-10 with tested compounds in a series of titration were added to start the reaction. After 3 hr reaction at room temperature, the amount of [^125I] IP-10 bound to the SPA beads was determined with a Wallac 1450 Microbeta counter.
The Ki values for the various example compounds of the present invention are given in the afore-mentioned Table 1. From these values, it would be apparent to the skilled artisan that the compounds of the invention have excellent utility CXCR3 antagonists.

[1] abbreviates: specific Ki values (Table 2), read-out: Ki.

Read-outs that look alike come from different tables or passages of the source. A value given as a limit tells only on which side of the number the result lay.

One may read the Ki as a dissociation constant, usually derived from enzyme kinetics or from competition with a known ligand. On to `CC[C@H]1CN(c2cnc(C(N)=O)c(=O)n2C)CCN1C1CCN(Cc2ccc(Cl)nc2N)CC1` [Compound Number 12], for which the inhibition constant (Ki) (read-out: Ki rating) is above 100 nM.

For the compound `CC[C@H]1CN(c2c(Cl)nc(-c3nnc(N)o3)c(=O)n2C)CCN1C1CCN(C(=O)c2ccc(Cl)cc2)CC1` [Compound Number 6], the Ki (read-out: Ki rating) lay within 25 to 100 nM.

In the case of `CC[C@H]1CN(c2c(Cl)nc(-c3nnc(N)o3)c(=O)n2C)CCN1C1CCN(Cc2cc(F)c(F)cc2Cl)CC1` [Compound Number 11], under “read-out: Ki rating”, the Ki is 25 to 100 nM.

On to `CC[C@H]1CN(c2c(Cl)nc(C(=O)OC)c(=O)n2C)CCN1C1CCN(Cc2ccc(Cl)cc2F)CC1` [Compound Number 8], for which the Ki (read-out: Ki rating) was in the range of 25 to 100 nM.

For `CC[C@H]1CN(c2c(Cl)nc(C(N)=O)c(=O)n2C)CCN1C1CCN(Cc2ccc(Cl)nc2N)CC1` [Compound Number 10], where the note is “read-out: Ki rating”, the inhibition constant Ki was 25 to 100 nM.

As for `CC[C@H]1CN(c2c(C)nc(C(N)=O)c(=O)n2C)CCN1C1CCN(Cc2ccc(Cl)cc2F)CC1` [Compound Number 7], where the note is “read-out: Ki rating”, the inhibition constant Ki was in the range of 25 to 100 nM.

For `CC[C@H]1CN(c2c(Cl)nc(-c3nnc(N)o3)c(=O)n2C)CCN1C1CCN(C(=O)c2ccc(Cl)nc2N)CC1` [Compound Number 3], the inhibition constant (Ki) is below 25 nM (read-out: Ki rating) and 7.5 nM under setting [1].

In the case of `CC[C@H]1CN(c2nc(O)c(-c3nnc(N)o3)nc2Cl)CCN1C1CCN(Cc2ccc(Cl)cc2)CC1` [Compound Number 13], for the setting “read-out: Ki rating”, the inhibition constant Ki is above 100 nM.

Regarding `CC[C@H]1CN(c2c(Cl)nc(C(N)=O)c(=O)n2C)CCN1C1CCN(Cc2ccc(Cl)cc2F)CC1` [Compound Number 4], the inhibitory constant (Ki) (read-out: Ki rating) was below 25 nM and the inhibition constant Ki under setting [1] stood at 8.3 nM.

For the compound `CCNc1nnc(-c2nc(C)c(N3CCN(C4CCN(C(=O)c5ccc(Cl)nc5N)CC4)[C@@H](CC)C3)n(C)c2=O)o1` [Compound Number 2], the Ki was below 25 nM (read-out: Ki rating) and 2.6 nM under setting [1].

As for `CC[C@H]1CN(c2c(Cl)nc(-c3nnc(N)o3)c(=O)n2C)CCN1C1CCN(Cc2ccc(Cl)cc2)CC1` [Compound Number 1], the Ki was below 25 nM (read-out: Ki rating) and 1.9 nM under setting [1].

Take `CC[C@H]1CN(c2c(Cl)nc(-c3nnc(N)o3)c(=O)n2C)CCN1C1CCN(Cc2ccc(Cl)nc2)CC1` [Compound Number 5]: the Ki was below 25 nM (read-out: Ki rating) and 1.9 nM under setting [1].

Regarding `CC[C@H]1CN(c2c(Cl)nc(-c3nnc(N)o3)c(=O)n2C)CCN1C1CCN(Cc2cc(F)c(Cl)cc2F)CC1` [Compound Number 9], the Ki (read-out: Ki rating) was 25 to 100 nM.

The values above are taken from patent US7781437B2, “Substituted heterocyclic compounds with CXCR3 antagonist activity” (Schering Corporation, priority 2005, dated 2010).
